Legend:
CCRF-CEM = experiment: Growth inhibition of human CCRF-CEM cells at 10^-5 M incubated for 48 hrs by sulforhodamine B assay relative to control; format: functional; settings: read-out: GI
HL-60(TB) = experiment: Growth inhibition of human HL-60(TB) cells at 10^-5 M incubated for 48 hrs by sulforhodamine B assay relative to control; format: functional; settings: HL-60, 48 h, read-out: GI
K562 = experiment: Growth inhibition of human K562 cells at 10^-5 M incubated for 48 hrs by sulforhodamine B assay relative to control; format: functional; settings: K562, 48 h, read-out: GI
MOLT-4 = experiment: Growth inhibition of human MOLT4 cells at 10^-5 M incubated for 48 hrs by sulforhodamine B assay relative to control; format: functional; settings: MOLT-4, 48 h, read-out: GI
RPMI-8226 = experiment: Growth inhibition of human RPMI8226 cells at 10^-5 M incubated for 48 hrs by sulforhodamine B assay relative to control; format: functional; settings: RPMI-8226, 48 h, read-out: GI
HOP-62 = experiment: Growth inhibition of human HOP62 cells at 10^-5 M incubated for 48 hrs by sulforhodamine B assay relative to control; format: functional; settings: HOP-62, 48 h, read-out: GI
HOP-92 = experiment: Growth inhibition of human HOP92 cells at 10^-5 M incubated for 48 hrs by sulforhodamine B assay relative to control; format: functional; settings: HOP-92, 48 h, read-out: GI
NCI-H226 [1] = experiment: Growth inhibition of human NCI-H226 cells at 10^-5 M incubated for 48 hrs by sulforhodamine B assay relative to control; format: functional; settings: NCI-H226, 48 h, read-out: GI
SF-539 = experiment: Growth inhibition of human SF539 cells at 10^-5 M incubated for 48 hrs by sulforhodamine B assay relative to control; format: functional; settings: SF-539, 48 h, read-out: GI
SNB-75 = experiment: Growth inhibition of human SNB75 cells at 10^-5 M incubated for 48 hrs by sulforhodamine B assay relative to control; format: functional; settings: SNB-75, 48 h, read-out: GI
LOX IMVI = experiment: Growth inhibition of human LOXIMVI cells at 10^-5 M incubated for 48 hrs by sulforhodamine B assay relative to control; format: functional; settings: read-out: GI
SK-MEL-5 = experiment: Growth inhibition of human SK-MEL-5 cells at 10^-5 M incubated for 48 hrs by sulforhodamine B assay relative to control; format: functional; settings: SK-MEL-5, 48 h, read-out: GI
IGROV-1 [2] = experiment: Growth inhibition of human IGROV1 cells at 10^-5 M incubated for 48 hrs by sulforhodamine B assay relative to control; format: functional; settings: IGROV-1, 48 h, read-out: GI
A498 = experiment: Growth inhibition of human A498 cells at 10^-5 M incubated for 48 hrs by sulforhodamine B assay relative to control; format: functional; settings: A498, 48 h, read-out: GI
UO-31 [3] = experiment: Growth inhibition of human UO31 cells at 10^-5 M incubated for 48 hrs by sulforhodamine B assay relative to control; format: functional; settings: UO-31, 48 h, read-out: GI
PC-3 = experiment: Growth inhibition of human PC3 cells at 10^-5 M incubated for 48 hrs by sulforhodamine B assay relative to control; format: functional; settings: PC-3, 48 h, read-out: GI
MCF7 = experiment: Growth inhibition of human MCF7 cells at 10^-5 M incubated for 48 hrs by sulforhodamine B assay relative to control; format: functional; settings: MCF7, 48 h, read-out: GI
MDA-MB-231 = experiment: Growth inhibition of human MDA-MB-231 cells at 10^-5 M incubated for 48 hrs by sulforhodamine B assay relative to control; format: functional; settings: MDA-MB-231, 48 h, read-out: GI
T47D = experiment: Growth inhibition of human T47D cells at 10^-5 M incubated for 48 hrs by sulforhodamine B assay relative to control; format: functional; settings: read-out: GI
MDA-MB-468 [4] = experiment: Growth inhibition of human MDA-MB-468 cells at 10^-5 M incubated for 48 hrs by sulforhodamine B assay relative to control; format: functional; settings: MDA-MB-468, 48 h, read-out: GI
NCI-H226 [5] = experiment: Antiproliferative activity against human NCI-H226 cells after 48 hrs by MTT assay; format: functional, cell-based; settings: NCI-H226, 48 h
IGROV-1 [6] = experiment: Antiproliferative activity against human IGROV1 cells after 48 hrs by MTT assay; format: functional, cell-based; settings: IGROV-1, 48 h
UO-31 [7] = experiment: Antiproliferative activity against human UO31 cells after 48 hrs by MTT assay; format: functional, cell-based; settings: UO-31, 48 h
UO-31 [8] = experiment: Potency index, ratio of doxorubicin IC50 to compound IC50 for antiproliferative activity against human UO31 cells; format: functional
NCI-H226 [9] = experiment: Potency index, ratio of doxorubicin IC50 to compound IC50 for antiproliferative activity against human NCI-H226 cells; format: functional
IGROV-1 [10] = experiment: Potency index, ratio of doxorubicin IC50 to compound IC50 for antiproliferative activity against human IGROV1 cells; format: functional
NCI-H226 [11] = experiment: Antiproliferative activity against human NCI-H226 cells after 48 hrs by SRB assay; format: functional; settings: NCI-H226, 48 h, read-out: LC50 (the source's name)
IGROV-1 [12] = experiment: Antiproliferative activity against human IGROV1 cells after 48 hrs by SRB assay; format: functional; settings: IGROV-1, 48 h, read-out: LC50 (the source's name)
UO-31 [13] = experiment: Antiproliferative activity against human UO31 cells after 48 hrs by SRB assay; format: functional; settings: UO-31, 48 h
UO-31 [14] = experiment: Cell cycle arrest in human UO31 cells assessed as accumulation at G1 phase at 0.72 uM after 24 hrs by propidium iodide staining based flow cytometry (reference value: 69.55%); format: functional
UO-31 [15] = experiment: Cell cycle arrest in human UO31 cells assessed as accumulation at G2 phase at 0.72 uM after 24 hrs by propidium iodide staining based flow cytometry (reference value: 5.49%); format: functional
UO-31 [16] = experiment: Cell cycle arrest in human UO31 cells assessed as accumulation at S phase at 0.72 uM after 24 hrs by propidium iodide staining based flow cytometry (reference value: 24.47%); format: functional
UO-31 [17] = experiment: Cell cycle arrest in human UO31 cells assessed as apoptotic cells at 0.72 uM after 24 hrs by propidium iodide staining based flow cytometry (reference value: 0.49%); format: functional
UO-31 [18] = experiment: Cell cycle arrest in human UO31 cells assessed as accumulation at pre-G1 phase at 0.72 uM after 24 hrs by propidium iodide staining based flow cytometry relative to control; format: functional
UO-31 [19] = experiment: Cell cycle arrest in human UO31 cells assessed as accumulation at G2/M phase at 0.72 uM after 24 hrs by propidium iodide staining based flow cytometry relative to control; format: functional
UO-31 [20] = experiment: Induction of apoptosis in human UO31 cells assessed as live cells at 0.72 uM after 24 hrs by Annexin V-FITC/propidium iodide staining based low cytometry (reference value: 97.84%); format: functional
UO-31 [21] = experiment: Induction of apoptosis in human UO31 cells assessed as early apoptotic cells at 0.72 uM after 24 hrs by Annexin V-FITC/propidium iodide staining based flow cytometry (reference value: 0.19%); format: functional
UO-31 [22] = experiment: Induction of apoptosis in human UO31 cells assessed as late apoptotic cells at 0.72 uM after 24 hrs by Annexin V-FITC/propidium iodide staining based flow cytometry (reference value: 0.22%); format: functional
UO-31 [23] = experiment: Induction of apoptosis in human UO31 cells assessed as necrotic cells at 0.72 uM after 24 hrs by Annexin V-FITC/propidium iodide staining based flow cytometry (reference value: 0.08%); format: functional
UO-31 [24] = experiment: Induction of apoptosis in human UO31 cells assessed as caspase-3 activation by measuring active caspase-3 level at 0.72 uM by […] (reference value: 66 pg/ml); format: functional
DNA topoisomerase 2-beta [25] = molecular target: T1, DNA topoisomerase 2-beta (Homo sapiens, UniProt Q02880); experiment: Inhibition of human topoisomerase-2B after 2 hrs by ELISA
DNA topoisomerase 2-beta [26] = molecular target: T1, DNA topoisomerase 2-beta; experiment: Potency index, ratio of doxorubicin IC50 to compound IC50 for inhibition of human topoisomerase-2B
DNA topoisomerase 2-beta [27] = molecular target: T1, DNA topoisomerase 2-beta; experiment: Potency index, ratio of amsacrine IC50 to compound IC50 for inhibition of human topoisomerase-2B
Bacillus subtilis = experiment: Antibacterial activity against Bacillus subtilis at 37 degC measured after 24 hrs by agar disc diffusion method; format: functional
Staphylococcus aureus = experiment: Antibacterial activity against Staphylococcus aureus at 37 degC measured after 24 hrs by agar disc diffusion method; format: functional
Escherichia coli = experiment: Antibacterial activity against Escherichia coli at 37 degC measured after 24 hrs by agar disc diffusion method; format: functional
Pseudomonas aeruginosa = experiment: Antibacterial activity against Pseudomonas aeruginosa at 37 degC measured after 24 hrs by agar disc diffusion method; format: functional
HL-60 = experiment: Antiproliferative activity against human HL60 cells after 48 hrs by MTT assay; format: functional, cell-based; settings: HL-60, 48 h
MDA-MB-468 [28] = experiment: Antiproliferative activity against human MDA-MB-468 cells after 48 hrs by MTT assay; format: functional, cell-based; settings: MDA-MB-468, 48 h
UO-31 [29] = experiment: Induction of apoptosis in human UO31 cells assessed as caspase-3 activation by measuring active caspase-3 level at 6.44 uM by […] (reference value: 66 pg/ml); format: functional

T1 sequence (Q02880 whole entry): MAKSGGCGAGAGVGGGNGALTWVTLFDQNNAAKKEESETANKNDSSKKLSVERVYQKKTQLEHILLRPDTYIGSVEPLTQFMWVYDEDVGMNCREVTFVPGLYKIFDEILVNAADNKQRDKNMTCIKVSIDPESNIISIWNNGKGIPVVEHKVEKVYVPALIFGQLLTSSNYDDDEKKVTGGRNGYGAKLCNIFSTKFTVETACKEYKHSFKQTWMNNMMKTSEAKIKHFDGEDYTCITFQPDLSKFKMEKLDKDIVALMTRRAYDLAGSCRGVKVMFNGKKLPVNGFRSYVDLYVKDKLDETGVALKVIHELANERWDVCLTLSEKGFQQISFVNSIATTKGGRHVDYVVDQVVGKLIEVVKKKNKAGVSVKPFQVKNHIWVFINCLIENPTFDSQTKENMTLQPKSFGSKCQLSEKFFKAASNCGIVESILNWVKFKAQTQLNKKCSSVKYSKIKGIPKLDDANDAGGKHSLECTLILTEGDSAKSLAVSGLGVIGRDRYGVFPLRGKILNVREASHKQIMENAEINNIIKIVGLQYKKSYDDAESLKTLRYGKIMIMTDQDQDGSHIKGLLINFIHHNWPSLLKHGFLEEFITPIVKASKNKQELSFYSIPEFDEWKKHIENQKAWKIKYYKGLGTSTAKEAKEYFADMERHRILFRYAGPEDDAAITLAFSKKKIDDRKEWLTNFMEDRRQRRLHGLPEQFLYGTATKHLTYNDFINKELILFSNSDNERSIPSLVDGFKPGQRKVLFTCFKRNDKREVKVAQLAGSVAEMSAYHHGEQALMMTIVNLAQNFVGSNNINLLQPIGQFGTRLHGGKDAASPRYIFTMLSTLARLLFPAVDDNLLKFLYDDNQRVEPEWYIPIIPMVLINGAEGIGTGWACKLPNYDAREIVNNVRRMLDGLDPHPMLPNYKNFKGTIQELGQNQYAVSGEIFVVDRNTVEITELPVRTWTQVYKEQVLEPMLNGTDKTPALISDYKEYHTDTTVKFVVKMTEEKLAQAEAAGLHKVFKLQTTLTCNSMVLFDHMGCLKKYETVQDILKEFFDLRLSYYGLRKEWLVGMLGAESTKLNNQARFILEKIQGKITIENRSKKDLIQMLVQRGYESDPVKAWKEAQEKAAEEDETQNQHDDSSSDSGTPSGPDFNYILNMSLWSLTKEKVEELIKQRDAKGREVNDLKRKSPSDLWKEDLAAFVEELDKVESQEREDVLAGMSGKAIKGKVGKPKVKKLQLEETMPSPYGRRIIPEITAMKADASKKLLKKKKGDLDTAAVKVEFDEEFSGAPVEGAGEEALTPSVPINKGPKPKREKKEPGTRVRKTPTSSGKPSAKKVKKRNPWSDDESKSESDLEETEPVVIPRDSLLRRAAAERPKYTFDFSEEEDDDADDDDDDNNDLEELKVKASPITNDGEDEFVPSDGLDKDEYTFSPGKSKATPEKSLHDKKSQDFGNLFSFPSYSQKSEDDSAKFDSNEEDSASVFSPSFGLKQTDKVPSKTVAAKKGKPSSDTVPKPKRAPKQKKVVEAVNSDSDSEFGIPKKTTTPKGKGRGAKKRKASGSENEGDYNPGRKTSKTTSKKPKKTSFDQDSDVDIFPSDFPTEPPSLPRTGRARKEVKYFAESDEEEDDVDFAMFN

## O=C(CN1CCN(c2cc3c(cc2F)c(=O)c(C(=O)O)cn3C2CC2)CC1)N/N=C/c1cc2ccccc2[nH]1
CCRF-CEM
  inhibition of growth at 10 µM: < 20%
HL-60(TB)
  inhibition of growth at 10 µM: < 20%
K562
  inhibition of growth at 10 µM: < 20%
MOLT-4
  inhibition of growth at 10 µM: < 20%
RPMI-8226
  inhibition of growth at 10 µM: < 20%
HOP-62
  inhibition of growth at 10 µM: 29%
HOP-92
  inhibition of growth at 10 µM: 29.8%
NCI-H226 [1]
  inhibition of growth at 10 µM: 34.4%
SF-539
  inhibition of growth at 10 µM: < 20%
SNB-75
  inhibition of growth at 10 µM: < 20%
LOX IMVI
  inhibition of growth at 10 µM: 36.6%
SK-MEL-5
  inhibition of growth at 10 µM: < 20%
IGROV-1 [2]
  inhibition of growth at 10 µM: 43.5%
A498
  inhibition of growth at 10 µM: < 20%
UO-31 [3]
  inhibition of growth at 10 µM: 34.1%
PC-3
  inhibition of growth at 10 µM: 20.3%
MCF7
  inhibition of growth at 10 µM: < 20%
MDA-MB-231
  inhibition of growth at 10 µM: 28.1%
T47D
  inhibition of growth at 10 µM: 25.5%
MDA-MB-468 [4]
  inhibition of growth at 10 µM: < 20%
NCI-H226 [5]
  IC50: 1.02 µM
IGROV-1 [6]
  IC50: 0.75 µM
UO-31 [7]
  IC50: 0.72 µM
UO-31 [8]
  Ratio IC50: 1.5 - 9
NCI-H226 [9]
  Ratio IC50: 4.9
IGROV-1 [10]
  Ratio IC50: 5.8
NCI-H226 [11]
  CC50: 15.4 µM
IGROV-1 [12]
  CC50: 18.8 µM
UO-31 [13]
  LC50: 15.1 µM
UO-31 [14]
  Activity: 62.64%
UO-31 [15]
  Activity: 11.32%
UO-31 [16]
  Activity: 21.69%
UO-31 [17]
  Activity: 4.35%
UO-31 [18]
  fold change (FC): 8.8
UO-31 [19]
  fold change (FC): 2.06
UO-31 [20]
  Activity: 93.84%
UO-31 [21]
  Activity: 2.14%
UO-31 [22]
  Activity: 1.88%
UO-31 [23]
  Activity: 0.33%
UO-31 [24]
  Activity: 293.6 pg/mL
DNA topoisomerase 2-beta [25]
  IC50: 0.86 µM
DNA topoisomerase 2-beta [26]
  Ratio IC50: 4
DNA topoisomerase 2-beta [27]
  Ratio IC50: 3
Bacillus subtilis
  diameter of the inhibition zone (DIZ): 27 mm
Staphylococcus aureus
  diameter of the inhibition zone (DIZ): 25 mm
Escherichia coli
  diameter of the inhibition zone (DIZ): 25 mm
Pseudomonas aeruginosa
  diameter of the inhibition zone (DIZ): 27 mm

## COc1cccc2c1C(=O)c1c(O)c3c(c(O)c1C2=O)C[C@@](O)(C(=O)CO)C[C@@H]3O[C@H]1C[C@H](N)[C@H](O)[C@H](C)O1 [DOXORUBICIN]
HL-60
  IC50: 8.91 µM
NCI-H226 [5]
  IC50: 5.07 µM
IGROV-1 [6]
  IC50: 4.36 µM
UO-31 [7]
  IC50: 6.44 µM
MDA-MB-468 [28]
  IC50: 2.81 µM
UO-31 [29]
  Activity: 375.6 pg/mL

— ChEMBL document CHEMBL4196087 (Eur J Med Chem, 2018)
